Data on 14 compounds can be found in patent US8722727B2, “Antifungal agents” (Seynix, Inc., priority 2008, dated 2014).

For the assay, the target named is T1, glucan synthase (GS) (Candida albicans, UniProt O13428).
T1 construct: Extraction of GS activity from membranes was performed at a protein concentration of 5 mg/mL in extraction buffer; endogenous in cells; host or cells: Candida albicans MY1055 (membrane fraction, detergent extraction, product entrapment)
T1 sequence (O13428 1-1897): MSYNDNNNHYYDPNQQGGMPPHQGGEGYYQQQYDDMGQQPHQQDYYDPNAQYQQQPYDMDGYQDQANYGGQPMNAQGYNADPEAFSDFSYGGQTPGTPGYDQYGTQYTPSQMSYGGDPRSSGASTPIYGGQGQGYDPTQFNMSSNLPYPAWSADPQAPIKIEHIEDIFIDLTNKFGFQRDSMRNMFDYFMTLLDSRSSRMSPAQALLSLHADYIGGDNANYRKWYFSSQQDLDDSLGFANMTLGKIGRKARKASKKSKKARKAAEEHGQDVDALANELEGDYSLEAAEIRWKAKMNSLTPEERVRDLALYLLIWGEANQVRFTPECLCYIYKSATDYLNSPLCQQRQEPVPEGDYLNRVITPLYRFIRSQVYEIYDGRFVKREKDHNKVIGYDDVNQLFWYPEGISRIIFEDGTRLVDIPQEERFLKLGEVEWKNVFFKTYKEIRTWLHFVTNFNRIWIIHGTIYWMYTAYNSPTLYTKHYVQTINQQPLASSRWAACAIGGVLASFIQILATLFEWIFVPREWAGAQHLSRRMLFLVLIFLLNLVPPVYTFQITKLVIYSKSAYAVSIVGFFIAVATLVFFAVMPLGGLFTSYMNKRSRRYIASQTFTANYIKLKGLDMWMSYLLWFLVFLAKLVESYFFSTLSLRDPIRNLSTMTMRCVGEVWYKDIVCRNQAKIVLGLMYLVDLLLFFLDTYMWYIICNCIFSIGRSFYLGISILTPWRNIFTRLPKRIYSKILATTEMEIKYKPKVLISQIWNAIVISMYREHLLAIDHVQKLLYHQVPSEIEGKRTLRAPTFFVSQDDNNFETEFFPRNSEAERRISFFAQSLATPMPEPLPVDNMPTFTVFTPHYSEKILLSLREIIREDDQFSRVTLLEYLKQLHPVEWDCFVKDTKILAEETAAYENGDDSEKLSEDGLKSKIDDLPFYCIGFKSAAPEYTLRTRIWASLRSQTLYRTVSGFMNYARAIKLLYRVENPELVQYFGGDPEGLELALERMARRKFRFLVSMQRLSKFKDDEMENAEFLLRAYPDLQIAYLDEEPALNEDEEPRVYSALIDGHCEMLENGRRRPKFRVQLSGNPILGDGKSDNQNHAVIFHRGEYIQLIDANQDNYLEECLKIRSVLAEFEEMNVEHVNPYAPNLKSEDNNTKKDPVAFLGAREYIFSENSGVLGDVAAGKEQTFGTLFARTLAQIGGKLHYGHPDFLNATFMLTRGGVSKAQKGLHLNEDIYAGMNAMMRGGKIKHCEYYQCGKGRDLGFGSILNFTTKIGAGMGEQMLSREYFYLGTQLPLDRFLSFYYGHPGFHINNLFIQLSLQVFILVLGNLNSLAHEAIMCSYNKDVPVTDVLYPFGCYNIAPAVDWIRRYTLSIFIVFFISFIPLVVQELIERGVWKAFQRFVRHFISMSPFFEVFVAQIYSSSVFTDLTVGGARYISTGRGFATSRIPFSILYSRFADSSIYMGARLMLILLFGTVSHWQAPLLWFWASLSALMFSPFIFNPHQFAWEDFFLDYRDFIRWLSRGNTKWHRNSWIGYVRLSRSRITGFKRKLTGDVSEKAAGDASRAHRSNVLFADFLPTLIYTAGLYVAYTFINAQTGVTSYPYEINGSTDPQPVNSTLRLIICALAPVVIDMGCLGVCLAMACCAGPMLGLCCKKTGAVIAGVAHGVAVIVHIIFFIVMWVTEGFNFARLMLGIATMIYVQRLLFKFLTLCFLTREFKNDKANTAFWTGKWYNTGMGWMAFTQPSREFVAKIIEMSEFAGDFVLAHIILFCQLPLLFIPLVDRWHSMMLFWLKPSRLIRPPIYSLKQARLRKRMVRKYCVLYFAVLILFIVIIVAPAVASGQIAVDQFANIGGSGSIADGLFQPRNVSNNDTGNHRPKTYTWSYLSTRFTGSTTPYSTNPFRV
T1 sequence (O42825 1-195 partner limits assumed): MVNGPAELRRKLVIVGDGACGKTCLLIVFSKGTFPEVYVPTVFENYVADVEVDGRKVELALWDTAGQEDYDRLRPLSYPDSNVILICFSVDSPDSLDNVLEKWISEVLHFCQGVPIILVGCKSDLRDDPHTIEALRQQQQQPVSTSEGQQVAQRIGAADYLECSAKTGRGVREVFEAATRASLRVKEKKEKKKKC
The assay is described as follows: Glucan synthase inhibition (polymerization assay, 96-well). Type of assay: biochemical. Particulars: glucan synthase prepared from Candida albicans MY1055; 60 min incubation at 22° C.; read-out: Candida Albicans GS IC50 (ng/mL) (converted). The essentials:
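Partially purified membrane glucan synthase from C. albicans MY1055, 60 min at 22° C with 0.5 mM 3H-UDPG, 25 μM GTP-γ-S, pH 7.5 HEPES, 25 mM KF. TCA-precipitated glucan filtered and scintillation counted; IC50 (ng/mL) from sigmoidal fit of duplicates over 3-fold dilutions.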
With `CC(C)[C@@H](C)[C@@]1(C)CC[C@]2(C)[C@H]3CC[C@@H]4[C@@]5(COC[C@@]4(C)[C@@H](OC[C@@H](C(C)C)N(C)C)[C@H](n4nnc(N)n4)C5)C3=CC[C@@]2(C)[C@@H]1C(=O)O` [Example 80, (1S,4aR,6aS,7R,8R,10aR,10bR,12aR,14R,15R)-14-(5-amino-2H-tetrazol-2-yl)-15-[[(2R)-2-(dimethylamino)-3-methylbutyl]oxy]-8-[(1R)-1,2-dimethylpropyl]-1,6,6a,7,8,9,10,10a,10b,11,12,12a-dodecahydro-1,6a,8,10a-tetramethyl-4H-1,4a-propano-2H-phenanthro[1,2-c]pyran-7-carboxylic acid], the IC50 was 5.98 nM.
Next, `CC(C)[C@@H](C)[C@@]1(C)CC[C@]2(C)[C@H]3CC[C@@H]4[C@@]5(COC[C@@]4(C)[C@@H](OC[C@@H](C4CC4)N(C)C)[C@H](n4nnc(N)n4)C5)C3=CC[C@@]2(C)[C@@H]1C(=O)O` [Example 83, (1S,4aR,6aS,7R,8R,10aR,10bR,12aR,14R,15R)-14-(5-amino-2H-tetrazol-2-yl)-15-[(2R)-2-cyclopropyl-2-(dimethylamino)ethoxy]-8-[(1R)-1,2-dimethylpropyl]-1,6,6a,7,8,9,10,10a,10b,11,12,12a-dodecahydro-1,6a,8,10a-tetramethyl-4H-1,4a-propano-2H-phenanthro[1,2-c]pyran-7-carboxylic acid]: 16.5 nM.
Next, `CC(C)[C@@H](C)[C@@]1(C)CC[C@]2(C)[C@H]3CC[C@@H]4[C@@]5(COC[C@@]4(C)[C@@H](OC[C@H](N)c4ccccc4)[C@H](n4nnc(N)n4)C5)C3=CC[C@@]2(C)[C@@H]1C(=O)O` [Example 88, (1S,4aR,6aS,7R,8R,10aR,10bR,12aR,14R,15R)-14-(5-amino-2H-tetrazol-2-yl)-15-[(2R)-2-amino-2-phenylethoxy]-8-[(1R)-1,2-dimethylpropyl]-1,6,6a,7,8,9,10,10a,10b,11,12,12a-dodecahydro-1,6a,8,10a-tetramethyl-4H-1,4a-propano-2H-phenanthro[1,2-c]pyran-7-carboxylic acid]: 26.7 nM; `CC(C)[C@H](N)CO[C@H]1[C@H](n2nnc(N)n2)C[C@@]23COC[C@]1(C)[C@@H]2CC[C@H]1C3=CC[C@@]2(C)[C@H](C(=O)O)[C@@](C)([C@H](C)C(C)C)CC[C@]12C` [Example 93, (1S,4aR,6aS,7R,8R,10aR,10bR,12aR,14R,15R)-14-(5-amino-2H-tetrazol-2-yl)-15-[[(2S)-2-amino-3-methylbutyl]oxy]-8-[(1R)-1,2-dimethylpropyl]-1,6,6a,7,8,9,10,10a,10b,11,12,12a-dodecahydro-1,6a,8,10a-tetramethyl-4H-1,4a-propano-2H-phenanthro[1,2-c]pyran-7-carboxylic acid]: 9.36 nM; `CCN[C@H](CO[C@H]1[C@H](n2nnc(N)n2)C[C@@]23COC[C@]1(C)[C@@H]2CC[C@H]1C3=CC[C@@]2(C)[C@H](C(=O)O)[C@@](C)([C@H](C)C(C)C)CC[C@]12C)C(C)(C)C` [Example 97, (1S,4aR,6aS,7R,8R,10aR,10bR,12aR,14R,15R)-14-(5-amino-2H-tetrazol-2-yl)-15-[[(2S)-2-(ethylamino)-3,3-dimethylbutyl]oxy]-8-[(1R)-1,2-dimethylpropyl]-1,6,6a,7,8,9,10,10a,10b,11,12,12a-dodecahydro-1,6a,8,10a-tetramethyl-4H-1,4a-propano-2H-phenanthro[1,2-c]pyran-7-carboxylic acid]: 13.2 nM.
With `CC[C@H](C)[C@@H](CO[C@H]1[C@H](n2nnc(N)n2)C[C@@]23COC[C@]1(C)[C@@H]2CC[C@H]1C3=CC[C@@]2(C)[C@H](C(=O)O)[C@@](C)([C@H](C)C(C)C)CC[C@]12C)N(C)C` [Example 101, (1S,4aR,6aS,7R,8R,10aR,10bR,12aR,14R,15R)-14-(5-amino-2H-tetrazol-2-yl)-15-[[(2S,3S)-2-(dimethylamino)-3-methylpentyl]oxy]-8-[(1R)-1,2-dimethylpropyl]-1,6,6a,7,8,9,10,10a,10b,11,12,12a-dodecahydro-1,6a,8,10a-tetramethyl-4H-1,4a-propano-2H-phenanthro[1,2-c]pyran-7-carboxylic acid] the figure was 11.7 nM.
Consider `CC(C)[C@@H](C)[C@@]1(C)CC[C@]2(C)[C@H]3CC[C@@H]4[C@@]5(COC[C@@]4(C)[C@@H](OCCN)[C@H](n4cnnn4)C5)C3=CC[C@@]2(C)[C@@H]1C(=O)O` [Example 104, (1S,4aR,6aS,7R,8R,10aR,10bR,12aR,14R,15R)-15-(2-aminoethoxy)-8-[(1R)-1,2-dimethylpropyl]-14-(1H-tetrazol-1-yl)-1,6,6a,7,8,9,10,10a,10b,11,12,12a-dodecahydro-1,6a,8,10a-tetramethyl-4H-1,4a-propano-2H-phenanthro[1,2-c]pyran-7-carboxylic acid], for which the IC50 was 118 nM.
With `CCNC(C)(COC1C(n2ncnn2)CC23COCC1(C)C2CCC1C3=CCC2(C)C(C(=O)O)C(C)(C(C)C(C)C)CCC12C)C(C)C` [Example 109, (1S,4aR,6aS,7R,8R,10aR,10bR,12aR,14R,15R)-8-[(1R)-1,2-dimethylpropyl]-15-[[(25)-2-(ethylamino)-2,3-dimethylbutyl]oxy]-14-(2H-tetrazol-2-yl)-1,6,6a,7,8,9,10,10a,10b,11,12,12a-dodecahydro-1,6a,8,10a-tetramethyl-4H-1,4a-propano-2H-phenanthro[1,2-c]pyran-7-carboxylic acid] the figure was 46.4 nM; with `CN[C@](C)(CO[C@H]1[C@H](n2nnc(N)n2)C[C@@]23COC[C@]1(C)[C@@H]2CC[C@H]1C3=CC[C@@]2(C)[C@H](C(=O)O)[C@@](C)([C@H](C)C(C)C)CC[C@]12C)C(C)(C)C` [Example 112, (1S,4aR,6aS,7R,8R,10aR,10bR,12aR,14R,15R)-14-(5-amino-2H-tetrazol-2-yl)-8-[(1R)-1,2-dimethylpropyl]-15-[[(2S)-2,3,3-trimethyl-2-(methylamino)butyl]oxy]-1,6,6a,7,8,9,10,10a,10b,11,12,12a-dodecahydro-1,6a,8,10a-tetramethyl-4H-1,4a-propano-2H-phenanthro[1,2-c]pyran-7-carboxylic acid], 8.78 nM; with `CC(C)[C@@H](C)[C@@]1(C)CC[C@]2(C)[C@H]3CC[C@@H]4[C@@]5(COC[C@@]4(C)[C@@H](OCCN(C)C)[C@H](n4nnc(N)n4)C5)C3=CC[C@@]2(C)[C@@H]1C(=O)O` [Example 114, (1S,4aR,6aS,7R,8R,10aR,10bR,12aR,14R,15R)-14-(5-amino-2H-tetrazol-2-yl)-15-[2-(dimethylamino)ethoxy]-8-[(1R)-1,2-dimethylpropyl]-1,6,6a,7,8,9,10,10a,10b,11,12,12a-dodecahydro-1,6a,8,10a-tetramethyl-4H-1,4a-propano-2H-phenanthro[1,2-c]pyran-7-carboxylic acid], 19.1 nM.
With `CCCCCC(C)(CO[C@H]1[C@H](n2nnc(N)n2)C[C@@]23COC[C@]1(C)[C@@H]2CC[C@H]1C3=CC[C@@]2(C)[C@H](C(=O)O)[C@@](C)([C@H](C)C(C)C)CC[C@]12C)NCCC` (stereo partly drawn) [Example 120, (1S,4aR,6aS,7R,8R,10aR,10bR,12aR,14R,15R)-14-(5-amino-2H-tetrazol-2-yl)-8-[(1R)-1,2-dimethylpropyl]-15-[[2-methyl-2-(propylamino)heptyl]oxy]-1,6,6a,7,8,9,10,10a,10b,11,12,12a-dodecahydro-1,6a,8,10a-tetramethyl-4H-1,4a-propano-2H-phenanthro[1,2-c]pyran-7-carboxylic acid] the figure was 60.7 nM; with `CC(C)[C@@H](C)[C@@]1(C)CC[C@]2(C)[C@H]3CC[C@@H]4[C@@]5(COC[C@@]4(C)[C@@H](OCC(C)(N)CCO)[C@H](n4nnc(N)n4)C5)C3=CC[C@@]2(C)[C@@H]1C(=O)O` (stereo partly drawn) [Example 122, (1S,4aR,6aS,7R,8R,10aR,10bR,12aR,14R,15R)-15-(2-amino-4-hydroxy-2-methylbutoxy)-14-(5-amino-2H-tetrazol-2-yl)-8-[(1R)-1,2-dimethylpropyl]-1,6,6a,7,8,9,10,10a,10b,11,12,12a-dodecahydro-1,6a,8,10a-tetramethyl-4H-1,4a-propano-2H-phenanthro[1,2-c]pyran-7-carboxylic acid], 16.7 nM.
`CCN(C)C(C)(CCOC)CO[C@H]1[C@H](n2nnc(N)n2)C[C@@]23COC[C@]1(C)[C@@H]2CC[C@H]1C3=CC[C@@]2(C)[C@H](C(=O)O)[C@@](C)([C@H](C)C(C)C)CC[C@]12C` (stereo partly drawn) [Example 127, (1S,4aR,6aS,7R,8R,10aR,10bR,12aR,14R,15R)-14-(5-amino-2H-tetrazol-2-yl)-8-[(1R)-1,2-dimethylpropyl]-15-[2-(ethylmethylamino)-4-methoxy-2-methylbutoxy]-1,6,6a,7,8,9,10,10a,10b,11,12,12a-dodecahydro-1,6a,8,10a-tetramethyl-4H-1,4a-propano-2H-phenanthro[1,2-c]pyran-7-carboxylic acid]: the IC50 was 30.9 nM.
On to `CNC(C)(CCF)CO[C@H]1[C@H](n2nnc(N)n2)C[C@@]23COC[C@]1(C)[C@@H]2CC[C@H]1C3=CC[C@@]2(C)[C@H](C(=O)O)[C@@](C)([C@H](C)C(C)C)CC[C@]12C` (stereo partly drawn) [Example 129, (1S,4aR,6aS,7R,8R,10aR,10bR,12aR,14R,15R)-14-(5-amino-2H-tetrazol-2-yl)-8-[(1R)-1,2-dimethylpropyl]-15-[4-fluoro-2-methyl-2-(methylamino)butoxy]-1,6,6a,7,8,9,10,10a,10b,11,12,12a-dodecahydro-1,6a,8,10a-tetramethyl-4H-1,4a-propano-2H-phenanthro[1,2-c]pyran-7-carboxylic acid], for which the IC50 was 7.43 nM.
